Assay results published in patent publication US8268778B2, “Flavivirus NS5A proteins for the treatment of HIV” (priority 2007, dated 2012).
“Also recorded” adds a separate entry of the source.

Columns and labels:
[1] = tested on: HIV-1 isolate (X4); assay: HIV replication (p24 antigen release) in Jurkat cell lines stably expressing NS5A proteins/peptides; format: cell-based; settings: Jurkat cell lines stably expressing the protein/peptide vs vector and frame-shift controls
[2] = tested on: CD4; format: cell-based, human
[3] = tested on: Jurkat cells; format: cell-based, human
[4] = tested on: HIV-1 isolate (X4); format: cell-based
[5] = tested on: SDF-1; format: cell-based, human
[6] = tested on: CXCR4; format: cell-based, human

Sequence	HIV replication (HIV p24 antigen release into culture supernatants) [1]	CD4 surface expression [2]	CD4 mRNA regulation, in words [3]	regulation of Th2 cytokines, TNFα, and BCL2 mRNA [3]	HIV replication [4]	SDF-1 release into culture supernatants [5]	CXCR4 surface expression [6]
VDGIPVSWDADARAPA (Hepatitis GB virus C) [152-167]	significantly reduced	down-regulate CD4	down-regulated	do not appear to be altered	–	–	–
DVIRAGPAWDSVAPAD [152-167scr, negative control, reference compound]	–	do not	–	–	Neither peptide inhibited HIV replication	–	–
VDGIPVGWDADARAPA (Hepatitis GB virus C) [S158G]	inhibited HIV replication; also recorded: significantly less HIV replication than FS and VC	do not	–	–	–	–	–
VDGIPVSWDADARA (Hepatitis GB virus C) [152-165]	significantly reduced	–	–	–	–	induced	–
VDGIPVAWDADARAPA (Hepatitis GB virus C) [S158A]	inhibited HIV replication; also recorded: significantly less HIV replication than FS and VC	do not	–	–	–	–	–
VDGIPVEWDADARAPA [S158E]	significantly inhibited; also recorded: significantly less HIV replication than all other cell lines	down-regulate CD4	–	–	–	induced SDF-1 release	significantly less CXCR4 expressed
